# Data: US10500166B2, “Methods for the treatment of erectile dysfunction using fispemifene” (QUATRX PHARMACEUTICALS, priority 2007, dated 2019)
# How the values were obtained:
# E2 (estradiol) = test: Example 3 study in hypogonadal men: serum estradiol (ITT); format: in vivo, human; details: for Estradiol, Max / Estradiol, Mean ± SD / Estradiol, Median / Estradiol, Min: Baseline (Visit 2);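 for Estradiol, Max: estradiol concentrations in pg/mL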;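 for Estradiol, Mean ± SD: estradiol concentrations in pg/mL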;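 for Estradiol, Median: estradiol concentrations in pg/mL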;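 for Estradiol, Min: estradiol concentrations in pg/mL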
# Method: (§1) A randomized, double-blind, placebo controlled, parallel-group study of once-daily doses of fispemifene (100, 200, and 300 mg/day) given for 4 weeks was conducted in a population of hypogonadal men. Subjects were required to meet all of the following inclusion criteria at screening and prior to randomization to be eligible for the study:
# (§2) There were 77 subjects total. The number of subjects randomized to the 100 mg fispemifene, 200 mg fispemifene, 300 mg fispemifene, and placebo arms were 21, 21, 19, and 16, respectively.
# (§3) Subjects were randomly assigned to one of four treatment groups in a 1:1:1:1 ratio: • Treatment A (100 mg): fispemifene 100 mg+placebo+placebo; • Treatment B (200 mg): fispemifene 100 mg+fispemifene 100 mg+placebo; • Treatment C (300 mg): fispemifene 100 mg+fispemifene 100 mg+fispemifene 100 mg; and • Treatment D (Placebo): placebo+placebo+placebo.
# (§4) Subjects took one dose (three capsules) of study medication once a day at home for 4 weeks. Capsules were to be taken in the morning immediately after breakfast, with the exception of the morning of the Week 4 visit. Capsules were not to be taken on the morning of the Week 4 visit because trough plasma levels of fispemifene were determined by a blood sample taken at this visit. Each subject was randomly assigned to treatment with one of the 3 different dose regimens of fispemifene or placebo vehicle. Each subject received a 4 week supply of study drug.
# (§5) Blood samples were taken from the subjects within 1 week prior to dosing with study drug to establish baseline values; after 2 and 4 weeks of randomization; and 2 weeks after the last dose of study drug. Serum was prepared from those samples and used to determine the mean % change from baseline in total testosterone, free testosterone, SHBG (sex hormone-binding globulin), DHT (dihydrotestosterone), E2 (estradiol), LH (luteinizing hormone), FSH (follicle stimulating hormone), and inhibin B.
# 3. Percent change from baseline in SHBG, DHT, E2, LH, FSH, inhibin B, and testosterone/E2 ratio at Weeks 2, 4, and 6.
# free testosterone = test: Example 3 study in hypogonadal men: serum free testosterone measured by equilibrium dialysis (ITT); format: in vivo, human
# Method: FIG. 6 depicts a graph of the data of the study from Example 3 showing serum free testosterone levels (ng/dL) measured by equilibrium dialysis over time for each of the treatment groups. The bars from left to right for each of the BL (baseline), 2 week, 4 week, and 6 week timepoints (the 6 week timepoint occurred 2 weeks after the discontinuation of study drug at week 4) correspond to the placebo, 100 mg, 200 mg, and 300 mg/day doses, respectively;
# as §1, §2, §3, §4, §5
# 1. Percent change from baseline in free testosterone and calculated free testosterone at Weeks 2, 4, and 6;
# [1] = 100 mg/day, to Week 6 (2 weeks after discontinuation)
# [2] = 200 mg/day, to Week 6 (2 weeks after discontinuation)
# [3] = 300 mg/day, to Week 6 (2 weeks after discontinuation)
# [4] = 100 mg/day, Week 6 (2 weeks after discontinuation)
# [5] = 200 mg/day, Week 6 (2 weeks after discontinuation)
# [6] = 300 mg/day, Week 6 (2 weeks after discontinuation)
compound,measurement,setting,value
"OCCOCCOc1ccc(/C(=C(/CCCl)c2ccccc2)c2ccccc2)cc1 [Fispemifene, (Z)-2-{2-[4-(4-Chloro-1,2-diphenylbut-1-enyl)phenoxy]ethoxy}ethanol]","Estradiol, Max",E2 (estradiol); 100 mg/day,34.0 pg/mL
same,"Estradiol, Mean ± SD",E2 (estradiol); 100 mg/day,18.2 ± 6.54 pg/mL
same,"Estradiol, Median",E2 (estradiol); 100 mg/day,18.0 pg/mL
same,"Estradiol, Min",E2 (estradiol); 100 mg/day,10.0 pg/mL
same,"Estradiol, % Change from Baseline, Max","E2 (estradiol); 100 mg/day, to Week 2",131%
same,"Estradiol, % Change from Baseline, Median","E2 (estradiol); 100 mg/day, to Week 2",32%
same,"Estradiol, % Change from Baseline, Max","E2 (estradiol); 100 mg/day, to Week 4",110%
same,"Estradiol, % Change from Baseline, Median","E2 (estradiol); 100 mg/day, to Week 4",31%
same,"Estradiol, % Change from Baseline, Max",E2 (estradiol); [1],80%
same,"Estradiol, % Change from Baseline, Median",E2 (estradiol); [1],13%
same,"Estradiol, Max",E2 (estradiol); 200 mg/day,33.0 pg/mL
same,"Estradiol, Mean ± SD",E2 (estradiol); 200 mg/day,19.2 ± 6.23 pg/mL
same,"Estradiol, Median",E2 (estradiol); 200 mg/day,17.0 pg/mL
same,"Estradiol, Min",E2 (estradiol); 200 mg/day,11.0 pg/mL
same,"Estradiol, % Change from Baseline, Max","E2 (estradiol); 200 mg/day, to Week 2",171%
same,"Estradiol, % Change from Baseline, Median","E2 (estradiol); 200 mg/day, to Week 2",23%
same,"Estradiol, % Change from Baseline, Max","E2 (estradiol); 200 mg/day, to Week 4",150%
same,"Estradiol, % Change from Baseline, Median","E2 (estradiol); 200 mg/day, to Week 4",43%
same,"Estradiol, % Change from Baseline, Max",E2 (estradiol); [2],176%
same,"Estradiol, % Change from Baseline, Median",E2 (estradiol); [2],23%
same,"Estradiol, Max",E2 (estradiol); 300 mg/day,42.0 pg/mL
same,"Estradiol, Mean ± SD",E2 (estradiol); 300 mg/day,20.8 ± 7.15 pg/mL
same,"Estradiol, Median",E2 (estradiol); 300 mg/day,22.0 pg/mL
same,"Estradiol, Min",E2 (estradiol); 300 mg/day,10.0 pg/mL
same,"Estradiol, % Change from Baseline, Max","E2 (estradiol); 300 mg/day, to Week 2",108%
same,"Estradiol, % Change from Baseline, Median","E2 (estradiol); 300 mg/day, to Week 2",33%
same,"Estradiol, % Change from Baseline, Max","E2 (estradiol); 300 mg/day, to Week 4",100%
same,"Estradiol, % Change from Baseline, Median","E2 (estradiol); 300 mg/day, to Week 4",29%
same,"Estradiol, % Change from Baseline, Max",E2 (estradiol); [3],77%
same,"Estradiol, % Change from Baseline, Median",E2 (estradiol); [3],0%
same,effect on serum estradiol levels,"E2 (estradiol); hypogonadal men, 100-300 mg/day for 4 weeks",increased
same,"Free Testosterone, Max","free testosterone; 100 mg/day, Baseline (Visit 2)",12.20 ng/dL
same,"Free Testosterone, Mean ± SD","free testosterone; 100 mg/day, Baseline (Visit 2)",8.35 ± 2.536 ng/dL
same,"Free Testosterone, Median","free testosterone; 100 mg/day, Baseline (Visit 2)",8.40 ng/dL
same,"Free Testosterone, Min","free testosterone; 100 mg/day, Baseline (Visit 2)",3.20 ng/dL
same,"Free Testosterone, Max","free testosterone; 100 mg/day, Week 2",17.7 ng/dL
same,"Free Testosterone, Mean ± SD","free testosterone; 100 mg/day, Week 2",11.6 ± 3.93 ng/dL
same,"Free Testosterone, Median","free testosterone; 100 mg/day, Week 2",10.3 ng/dL
same,"Free Testosterone, Min","free testosterone; 100 mg/day, Week 2",5.7 ng/dL
same,"Free Testosterone, Max","free testosterone; 100 mg/day, Week 4",18.2 ng/dL
same,"Free Testosterone, Mean ± SD","free testosterone; 100 mg/day, Week 4",11.3 ± 3.40 ng/dL
same,"Free Testosterone, Median","free testosterone; 100 mg/day, Week 4",10.8 ng/dL
same,"Free Testosterone, Min","free testosterone; 100 mg/day, Week 4",6.4 ng/dL
same,"Free Testosterone, Max",free testosterone; [4],13.30 ng/dL
same,"Free Testosterone, Mean ± SD",free testosterone; [4],8.93 ± 0.023 ng/dL
same,"Free Testosterone, Median",free testosterone; [4],9.80 ng/dL
same,"Free Testosterone, Min",free testosterone; [4],4.90 ng/dL
same,"Free Testosterone, % Change from Baseline, Mean ± SD","free testosterone; 100 mg/day, to Week 2",0.4 ± 0.00387%
same,"Free Testosterone, Max","free testosterone; 200 mg/day, Baseline (Visit 2)",15.90 ng/dL
same,"Free Testosterone, Mean ± SD","free testosterone; 200 mg/day, Baseline (Visit 2)",8.48 ± 3.043 ng/dL
same,"Free Testosterone, Median","free testosterone; 200 mg/day, Baseline (Visit 2)",8.50 ng/dL
same,"Free Testosterone, Min","free testosterone; 200 mg/day, Baseline (Visit 2)",4.30 ng/dL
same,"Free Testosterone, Max","free testosterone; 200 mg/day, Week 2",16.4 ng/dL
same,"Free Testosterone, Mean ± SD","free testosterone; 200 mg/day, Week 2",10.6 ± 3.52 ng/dL
same,"Free Testosterone, Median","free testosterone; 200 mg/day, Week 2",10.0 ng/dL
same,"Free Testosterone, Min","free testosterone; 200 mg/day, Week 2",4.8 ng/dL
same,"Free Testosterone, Max","free testosterone; 200 mg/day, Week 4",19.4 ng/dL
same,"Free Testosterone, Mean ± SD","free testosterone; 200 mg/day, Week 4",11.8 ± 3.80 ng/dL
same,"Free Testosterone, Median","free testosterone; 200 mg/day, Week 4",12.2 ng/dL
same,"Free Testosterone, Min","free testosterone; 200 mg/day, Week 4",5.2 ng/dL
same,"Free Testosterone, Max",free testosterone; [5],16.80 ng/dL
same,"Free Testosterone, Mean ± SD",free testosterone; [5],9.10 ± 3.307 ng/dL
same,"Free Testosterone, Median",free testosterone; [5],8.00 ng/dL
same,"Free Testosterone, Min",free testosterone; [5],5.40 ng/dL
same,"Free Testosterone, Max","free testosterone; 300 mg/day, Baseline (Visit 2)",12.30 ng/dL
same,"Free Testosterone, Mean ± SD","free testosterone; 300 mg/day, Baseline (Visit 2)",8.19 ± 2.966 ng/dL
same,"Free Testosterone, Median","free testosterone; 300 mg/day, Baseline (Visit 2)",8.20 ng/dL
same,"Free Testosterone, Max","free testosterone; 300 mg/day, Week 2",22.0 ng/dL
same,"Free Testosterone, Mean ± SD","free testosterone; 300 mg/day, Week 2",12.1 ± 4.96 ng/dL
same,"Free Testosterone, Median","free testosterone; 300 mg/day, Week 2",12.9 ng/dL
same,"Free Testosterone, Min","free testosterone; 300 mg/day, Week 2",0.2 ng/dL
same,"Free Testosterone, Max","free testosterone; 300 mg/day, Week 4",21.2 ng/dL
same,"Free Testosterone, Mean ± SD","free testosterone; 300 mg/day, Week 4",12.5 ± 5.00 ng/dL
same,"Free Testosterone, Median","free testosterone; 300 mg/day, Week 4",14.0 ng/dL
same,"Free Testosterone, Min","free testosterone; 300 mg/day, Week 4",0.1 ng/dL
same,"Free Testosterone, Max",free testosterone; [6],17.30 ng/dL
same,"Free Testosterone, Mean ± SD",free testosterone; [6],9.30 ± 3.567 ng/dL
same,"Free Testosterone, Median",free testosterone; [6],9.80 ng/dL
same,"Free Testosterone, Min",free testosterone; [6],0.30 ng/dL
